Measured values published in ChEMBL document CHEMBL1743141, “Membrane transporters in drug development” (Nat Rev Drug Discov, 2010).
Each block holds one compound with its values, some of them ahead of it.

Assays:
Format in all cases: ADME
[1] = target: T1, Solute carrier family 15 member 2 (Homo sapiens, UniProt Q16348); assay: Inhibitors of transporters of clinical importance in the absorption and disposition of drugs, PEPT2
T1 sequence (Q16348 whole entry): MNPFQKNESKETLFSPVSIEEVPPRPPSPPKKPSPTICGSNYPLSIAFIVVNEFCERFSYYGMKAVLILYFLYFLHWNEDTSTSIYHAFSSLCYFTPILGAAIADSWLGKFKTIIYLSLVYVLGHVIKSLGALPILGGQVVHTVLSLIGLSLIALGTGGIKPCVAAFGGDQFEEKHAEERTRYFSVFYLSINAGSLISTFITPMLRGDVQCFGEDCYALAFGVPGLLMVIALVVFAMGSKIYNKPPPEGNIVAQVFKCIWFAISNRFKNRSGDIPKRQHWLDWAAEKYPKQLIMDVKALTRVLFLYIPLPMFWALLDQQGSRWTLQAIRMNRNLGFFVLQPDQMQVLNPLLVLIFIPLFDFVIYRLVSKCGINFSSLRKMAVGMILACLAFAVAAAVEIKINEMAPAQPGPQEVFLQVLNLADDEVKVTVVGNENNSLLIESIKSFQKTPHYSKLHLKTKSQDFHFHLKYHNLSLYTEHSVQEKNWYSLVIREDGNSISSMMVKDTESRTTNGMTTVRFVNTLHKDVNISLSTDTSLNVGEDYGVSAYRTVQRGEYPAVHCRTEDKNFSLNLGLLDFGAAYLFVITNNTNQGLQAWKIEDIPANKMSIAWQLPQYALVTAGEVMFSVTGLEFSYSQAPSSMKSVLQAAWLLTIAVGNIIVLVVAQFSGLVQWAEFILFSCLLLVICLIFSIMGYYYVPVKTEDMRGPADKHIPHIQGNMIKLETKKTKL

[2] = target: T2, Solute carrier family 22 member 6 (Homo sapiens, UniProt Q4U2R8); assay: Inhibitors of transporters of clinical importance in the absorption and disposition of drugs, OAT1
T2 sequence (Q4U2R8 whole entry): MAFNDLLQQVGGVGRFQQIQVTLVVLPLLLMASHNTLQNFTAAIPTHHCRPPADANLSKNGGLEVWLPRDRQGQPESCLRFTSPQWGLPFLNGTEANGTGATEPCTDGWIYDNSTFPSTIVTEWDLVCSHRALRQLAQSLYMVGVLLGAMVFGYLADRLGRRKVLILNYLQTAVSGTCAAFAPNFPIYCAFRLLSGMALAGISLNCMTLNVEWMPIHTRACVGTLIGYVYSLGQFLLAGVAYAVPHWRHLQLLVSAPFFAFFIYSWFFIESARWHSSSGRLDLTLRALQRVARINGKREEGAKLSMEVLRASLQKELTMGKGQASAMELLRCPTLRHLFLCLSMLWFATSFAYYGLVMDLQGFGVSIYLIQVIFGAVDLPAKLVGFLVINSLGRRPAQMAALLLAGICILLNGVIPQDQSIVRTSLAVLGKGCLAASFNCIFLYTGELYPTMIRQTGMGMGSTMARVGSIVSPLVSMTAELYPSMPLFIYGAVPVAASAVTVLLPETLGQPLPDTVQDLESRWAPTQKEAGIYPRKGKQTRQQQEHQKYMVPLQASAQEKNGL

[3] = target: T3, Organic anion transporter 3 (Homo sapiens, UniProt Q8TCC7); assay: Inhibitors of transporters of clinical importance in the absorption and disposition of drugs, OAT3
T3 sequence (Q8TCC7 whole entry): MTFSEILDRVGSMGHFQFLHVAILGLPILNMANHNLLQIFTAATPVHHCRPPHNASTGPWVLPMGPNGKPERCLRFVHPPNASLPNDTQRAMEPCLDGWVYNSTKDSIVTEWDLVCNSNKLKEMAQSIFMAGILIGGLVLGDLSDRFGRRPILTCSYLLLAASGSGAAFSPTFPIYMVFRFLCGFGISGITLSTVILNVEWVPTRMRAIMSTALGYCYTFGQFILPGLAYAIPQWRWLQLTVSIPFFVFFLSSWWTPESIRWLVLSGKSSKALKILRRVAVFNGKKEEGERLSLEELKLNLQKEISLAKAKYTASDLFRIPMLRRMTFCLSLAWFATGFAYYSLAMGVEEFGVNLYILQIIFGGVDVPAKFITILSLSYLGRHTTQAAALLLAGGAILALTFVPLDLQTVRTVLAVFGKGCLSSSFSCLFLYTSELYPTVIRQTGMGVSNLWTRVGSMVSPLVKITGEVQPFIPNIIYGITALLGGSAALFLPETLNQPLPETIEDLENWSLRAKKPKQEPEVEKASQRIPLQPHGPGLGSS

[4] = target: T4, ATP-binding cassette sub-family C member 4 (Homo sapiens, UniProt O15439); assay: Inhibitors of transporters of clinical importance in the absorption and disposition of drugs, MRP4
T4 sequence (O15439 whole entry): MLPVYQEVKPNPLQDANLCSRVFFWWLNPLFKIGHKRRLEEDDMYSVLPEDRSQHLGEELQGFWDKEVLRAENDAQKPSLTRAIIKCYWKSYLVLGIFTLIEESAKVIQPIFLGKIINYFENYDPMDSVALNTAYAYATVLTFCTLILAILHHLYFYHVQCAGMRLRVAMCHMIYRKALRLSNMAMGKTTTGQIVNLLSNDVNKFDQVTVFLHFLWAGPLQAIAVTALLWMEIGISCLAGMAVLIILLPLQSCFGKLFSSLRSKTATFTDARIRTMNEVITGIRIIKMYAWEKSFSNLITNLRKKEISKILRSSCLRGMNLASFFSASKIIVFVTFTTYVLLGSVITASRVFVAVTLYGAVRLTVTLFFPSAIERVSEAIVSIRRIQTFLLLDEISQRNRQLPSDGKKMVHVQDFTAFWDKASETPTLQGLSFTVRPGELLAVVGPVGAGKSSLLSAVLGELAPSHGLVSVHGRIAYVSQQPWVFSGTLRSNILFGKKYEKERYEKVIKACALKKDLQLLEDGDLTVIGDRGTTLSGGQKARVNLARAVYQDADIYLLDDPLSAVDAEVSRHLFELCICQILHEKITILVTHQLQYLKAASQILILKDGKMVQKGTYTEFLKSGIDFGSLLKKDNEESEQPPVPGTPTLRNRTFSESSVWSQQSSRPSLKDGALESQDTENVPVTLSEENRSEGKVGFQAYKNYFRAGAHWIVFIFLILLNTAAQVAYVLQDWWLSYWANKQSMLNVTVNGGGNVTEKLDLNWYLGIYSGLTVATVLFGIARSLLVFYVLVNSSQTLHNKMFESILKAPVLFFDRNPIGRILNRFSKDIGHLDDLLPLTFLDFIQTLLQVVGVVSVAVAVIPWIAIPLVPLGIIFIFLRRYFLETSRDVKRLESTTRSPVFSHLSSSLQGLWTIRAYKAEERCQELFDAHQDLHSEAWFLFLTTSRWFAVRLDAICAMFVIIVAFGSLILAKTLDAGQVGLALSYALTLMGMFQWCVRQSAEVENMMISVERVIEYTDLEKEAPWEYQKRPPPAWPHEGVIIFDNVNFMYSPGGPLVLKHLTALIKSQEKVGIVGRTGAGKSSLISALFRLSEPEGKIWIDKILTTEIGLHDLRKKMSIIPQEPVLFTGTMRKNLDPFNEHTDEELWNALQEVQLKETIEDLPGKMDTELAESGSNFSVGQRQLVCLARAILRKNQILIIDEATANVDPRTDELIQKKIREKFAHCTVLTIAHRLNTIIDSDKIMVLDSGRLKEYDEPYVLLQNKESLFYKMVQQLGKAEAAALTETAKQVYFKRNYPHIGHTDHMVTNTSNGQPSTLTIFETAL

[5] = target: ATP-binding cassette sub-family C member 2 (Homo sapiens, UniProt Q92887); assay: Inhibitors of transporters of clinical importance in the absorption and disposition of drugs, MRP2
Sequence of ATP-binding cassette sub-family C member 2 (Q92887 whole entry): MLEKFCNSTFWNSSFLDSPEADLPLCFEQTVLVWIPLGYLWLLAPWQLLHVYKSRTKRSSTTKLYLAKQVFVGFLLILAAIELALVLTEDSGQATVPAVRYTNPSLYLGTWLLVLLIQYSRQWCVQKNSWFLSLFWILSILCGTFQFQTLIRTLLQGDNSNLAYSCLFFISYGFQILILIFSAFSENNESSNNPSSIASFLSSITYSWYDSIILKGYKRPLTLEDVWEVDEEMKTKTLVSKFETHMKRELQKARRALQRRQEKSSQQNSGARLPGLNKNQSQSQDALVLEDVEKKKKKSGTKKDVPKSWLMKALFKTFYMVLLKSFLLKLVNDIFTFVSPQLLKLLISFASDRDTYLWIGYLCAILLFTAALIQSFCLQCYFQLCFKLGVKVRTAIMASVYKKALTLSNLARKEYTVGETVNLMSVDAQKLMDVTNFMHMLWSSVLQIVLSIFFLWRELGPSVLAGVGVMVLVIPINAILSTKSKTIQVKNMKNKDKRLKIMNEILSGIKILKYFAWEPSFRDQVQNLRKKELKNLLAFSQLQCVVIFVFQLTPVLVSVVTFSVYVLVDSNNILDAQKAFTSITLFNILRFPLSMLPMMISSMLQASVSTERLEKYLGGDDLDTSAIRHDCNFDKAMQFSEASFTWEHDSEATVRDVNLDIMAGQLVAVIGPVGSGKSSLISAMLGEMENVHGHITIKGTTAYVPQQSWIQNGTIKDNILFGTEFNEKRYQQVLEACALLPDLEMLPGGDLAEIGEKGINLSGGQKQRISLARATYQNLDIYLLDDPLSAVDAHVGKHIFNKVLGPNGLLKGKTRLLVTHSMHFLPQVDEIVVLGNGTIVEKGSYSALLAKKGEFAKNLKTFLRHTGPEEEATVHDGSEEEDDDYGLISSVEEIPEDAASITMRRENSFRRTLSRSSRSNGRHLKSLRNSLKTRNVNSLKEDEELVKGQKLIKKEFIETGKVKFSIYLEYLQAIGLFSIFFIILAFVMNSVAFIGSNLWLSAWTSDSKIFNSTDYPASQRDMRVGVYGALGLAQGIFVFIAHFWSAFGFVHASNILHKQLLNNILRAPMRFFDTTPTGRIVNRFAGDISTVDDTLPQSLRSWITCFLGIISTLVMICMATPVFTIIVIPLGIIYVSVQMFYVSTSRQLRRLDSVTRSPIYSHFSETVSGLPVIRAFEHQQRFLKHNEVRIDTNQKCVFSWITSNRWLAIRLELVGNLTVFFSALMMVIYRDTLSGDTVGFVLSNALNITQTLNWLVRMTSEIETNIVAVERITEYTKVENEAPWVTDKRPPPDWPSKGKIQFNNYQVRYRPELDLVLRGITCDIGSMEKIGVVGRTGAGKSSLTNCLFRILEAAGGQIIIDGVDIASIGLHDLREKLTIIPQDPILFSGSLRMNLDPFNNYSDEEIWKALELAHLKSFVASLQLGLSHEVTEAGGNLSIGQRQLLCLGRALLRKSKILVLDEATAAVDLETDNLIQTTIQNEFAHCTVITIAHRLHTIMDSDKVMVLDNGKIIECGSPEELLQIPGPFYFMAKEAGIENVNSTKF

[6] = target: ATP-binding cassette sub-family C member 3 (Homo sapiens, UniProt O15438); assay: Inhibitors of transporters of clinical importance in the absorption and disposition of drugs, MPR3
Sequence of ATP-binding cassette sub-family C member 3 (O15438 whole entry): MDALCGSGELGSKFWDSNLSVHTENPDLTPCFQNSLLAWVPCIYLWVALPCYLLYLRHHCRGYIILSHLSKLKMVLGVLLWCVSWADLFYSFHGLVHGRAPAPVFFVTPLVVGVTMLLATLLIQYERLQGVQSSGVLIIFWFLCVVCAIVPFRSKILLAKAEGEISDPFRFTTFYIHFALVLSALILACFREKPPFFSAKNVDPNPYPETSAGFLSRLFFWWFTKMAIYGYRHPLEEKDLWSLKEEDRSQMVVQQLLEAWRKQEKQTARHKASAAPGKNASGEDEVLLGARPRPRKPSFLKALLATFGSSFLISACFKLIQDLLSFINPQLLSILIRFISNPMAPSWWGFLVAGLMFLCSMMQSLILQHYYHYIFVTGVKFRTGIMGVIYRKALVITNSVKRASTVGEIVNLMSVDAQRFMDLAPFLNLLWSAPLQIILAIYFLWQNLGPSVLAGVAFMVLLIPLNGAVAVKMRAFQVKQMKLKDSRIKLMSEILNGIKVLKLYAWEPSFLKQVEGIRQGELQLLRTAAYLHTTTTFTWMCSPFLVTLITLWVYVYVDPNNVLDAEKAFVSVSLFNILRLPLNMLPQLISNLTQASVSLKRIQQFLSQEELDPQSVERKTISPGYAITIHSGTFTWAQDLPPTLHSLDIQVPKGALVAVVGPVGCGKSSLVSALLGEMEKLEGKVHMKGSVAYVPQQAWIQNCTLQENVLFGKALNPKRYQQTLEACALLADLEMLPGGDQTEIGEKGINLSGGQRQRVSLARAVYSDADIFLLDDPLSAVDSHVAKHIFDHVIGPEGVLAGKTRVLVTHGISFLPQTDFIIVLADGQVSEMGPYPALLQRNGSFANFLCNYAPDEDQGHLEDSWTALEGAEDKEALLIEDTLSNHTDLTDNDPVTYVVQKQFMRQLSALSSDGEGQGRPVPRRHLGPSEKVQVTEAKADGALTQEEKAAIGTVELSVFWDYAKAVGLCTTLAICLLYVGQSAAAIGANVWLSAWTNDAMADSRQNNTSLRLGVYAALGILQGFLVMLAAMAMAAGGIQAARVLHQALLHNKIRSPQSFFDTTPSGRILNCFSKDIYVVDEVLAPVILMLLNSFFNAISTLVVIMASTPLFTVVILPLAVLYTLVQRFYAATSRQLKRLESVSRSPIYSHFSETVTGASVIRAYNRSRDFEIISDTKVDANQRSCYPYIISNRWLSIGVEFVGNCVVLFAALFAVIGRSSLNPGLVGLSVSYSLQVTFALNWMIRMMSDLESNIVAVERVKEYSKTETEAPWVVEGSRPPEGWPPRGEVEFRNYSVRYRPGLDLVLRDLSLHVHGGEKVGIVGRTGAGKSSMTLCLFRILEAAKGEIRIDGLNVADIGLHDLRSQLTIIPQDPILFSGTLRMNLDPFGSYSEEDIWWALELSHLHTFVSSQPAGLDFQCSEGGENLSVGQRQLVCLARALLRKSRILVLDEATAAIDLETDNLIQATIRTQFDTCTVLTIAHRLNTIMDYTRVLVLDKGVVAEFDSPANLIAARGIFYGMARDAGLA

[7] = target: T5, Solute carrier organic anion transporter family member 1B3 (Homo sapiens, UniProt Q9NPD5); assay: Inhibitors of transporters of clinical importance in the absorption and disposition of drugs, OATP1B3
T5 sequence (Q9NPD5 whole entry): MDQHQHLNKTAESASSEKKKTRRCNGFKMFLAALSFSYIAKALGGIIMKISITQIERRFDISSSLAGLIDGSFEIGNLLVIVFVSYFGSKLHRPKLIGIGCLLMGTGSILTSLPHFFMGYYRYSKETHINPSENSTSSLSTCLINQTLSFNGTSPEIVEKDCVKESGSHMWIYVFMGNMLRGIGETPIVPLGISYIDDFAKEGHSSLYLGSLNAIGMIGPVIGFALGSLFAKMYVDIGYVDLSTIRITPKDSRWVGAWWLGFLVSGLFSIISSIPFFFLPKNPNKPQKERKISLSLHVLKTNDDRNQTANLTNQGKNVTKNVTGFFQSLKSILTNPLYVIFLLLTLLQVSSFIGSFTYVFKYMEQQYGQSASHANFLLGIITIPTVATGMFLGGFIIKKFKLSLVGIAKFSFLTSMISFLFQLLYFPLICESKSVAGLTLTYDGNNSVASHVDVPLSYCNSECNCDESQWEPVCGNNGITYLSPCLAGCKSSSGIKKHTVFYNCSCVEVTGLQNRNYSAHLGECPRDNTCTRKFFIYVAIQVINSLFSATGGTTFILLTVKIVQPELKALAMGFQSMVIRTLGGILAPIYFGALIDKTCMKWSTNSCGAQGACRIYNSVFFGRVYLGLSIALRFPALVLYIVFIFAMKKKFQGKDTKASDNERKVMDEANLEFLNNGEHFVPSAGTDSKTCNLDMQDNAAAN

[8] = target: T6, Solute carrier organic anion transporter family member 1B1 (Homo sapiens, UniProt Q9Y6L6); assay: Inhibitors of transporters of clinical importance in the absorption and disposition of drugs, OATP1B1
T6 sequence (Q9Y6L6 whole entry): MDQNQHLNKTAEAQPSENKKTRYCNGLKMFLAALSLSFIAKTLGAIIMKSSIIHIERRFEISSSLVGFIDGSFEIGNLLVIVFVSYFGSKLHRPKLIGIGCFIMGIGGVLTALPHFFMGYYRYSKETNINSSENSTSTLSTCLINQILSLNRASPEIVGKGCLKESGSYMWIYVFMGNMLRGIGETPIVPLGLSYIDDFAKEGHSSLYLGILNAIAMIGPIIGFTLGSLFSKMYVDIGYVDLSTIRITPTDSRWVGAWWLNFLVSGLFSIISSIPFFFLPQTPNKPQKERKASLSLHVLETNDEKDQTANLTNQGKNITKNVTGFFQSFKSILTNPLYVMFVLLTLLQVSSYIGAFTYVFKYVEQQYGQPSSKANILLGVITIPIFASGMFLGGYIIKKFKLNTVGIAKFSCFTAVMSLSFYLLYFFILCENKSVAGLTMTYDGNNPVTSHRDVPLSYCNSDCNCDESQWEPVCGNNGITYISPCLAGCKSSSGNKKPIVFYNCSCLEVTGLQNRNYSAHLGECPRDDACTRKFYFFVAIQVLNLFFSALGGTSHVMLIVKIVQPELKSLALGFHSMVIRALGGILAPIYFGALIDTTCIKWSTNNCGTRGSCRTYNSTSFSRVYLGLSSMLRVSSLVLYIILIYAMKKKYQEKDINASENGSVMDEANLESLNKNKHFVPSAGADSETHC

[9] = target: T7, Solute carrier organic anion transporter family member 1A2 (Homo sapiens, UniProt P46721); assay: Inhibitors of transporters of clinical importance in the absorption and disposition of drugs, OATP1A2
T7 sequence (P46721 whole entry): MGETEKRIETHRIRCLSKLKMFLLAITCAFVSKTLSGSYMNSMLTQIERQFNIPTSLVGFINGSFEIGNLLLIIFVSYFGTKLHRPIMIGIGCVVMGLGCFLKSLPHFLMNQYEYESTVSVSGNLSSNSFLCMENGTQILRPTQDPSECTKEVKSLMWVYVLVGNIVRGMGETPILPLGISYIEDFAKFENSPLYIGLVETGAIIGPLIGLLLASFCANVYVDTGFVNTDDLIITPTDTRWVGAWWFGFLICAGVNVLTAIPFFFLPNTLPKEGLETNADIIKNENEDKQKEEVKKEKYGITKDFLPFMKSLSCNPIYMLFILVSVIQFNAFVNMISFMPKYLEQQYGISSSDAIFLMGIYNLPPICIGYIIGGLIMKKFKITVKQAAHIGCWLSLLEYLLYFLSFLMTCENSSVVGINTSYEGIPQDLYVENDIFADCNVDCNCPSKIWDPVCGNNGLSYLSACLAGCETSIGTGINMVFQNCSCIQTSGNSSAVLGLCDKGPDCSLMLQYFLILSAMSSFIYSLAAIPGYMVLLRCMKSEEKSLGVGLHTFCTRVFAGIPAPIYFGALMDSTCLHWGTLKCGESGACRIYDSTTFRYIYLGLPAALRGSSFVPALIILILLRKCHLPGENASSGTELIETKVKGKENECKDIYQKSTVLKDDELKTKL

SMILES: C[C@H](CSC(=O)c1ccccc1)C(=O)N1C[C@@H](Sc2ccccc2)C[C@H]1C(=O)O [ZOFENOPRIL]
Activity [1]: transporter inhibitor

SMILES: CCC(=O)O[C@@H](O[P@](=O)(CCCCc1ccccc1)CC(=O)N1C[C@H](C2CCCCC2)C[C@H]1C(=O)O)C(C)C [FOSINOPRIL]
Activity [1]: transporter inhibitor

SMILES: Cc1cccc(C)c1OCC(=O)N[C@@H](Cc1ccccc1)[C@@H](O)C[C@H](Cc1ccccc1)NC(=O)[C@H](C(C)C)N1CCCNC1=O [LOPINAVIR]
Activity [7]: transporter inhibitor
Activity [8]: transporter inhibitor
Activity [9]: transporter inhibitor

SMILES: CCCN(CCC)S(=O)(=O)c1ccc(C(=O)O)cc1 [PROBENECID]
Activity [3]: transporter inhibitor

Next, values leading:

Activity [2]: transporter inhibitor
Activity [3]: transporter inhibitor
SMILES: CO[C@@H]1[C@@H](OC(N)=O)[C@@H](O)[C@H](Oc2ccc3c(O)c(NC(=O)c4ccc(O)c(CC=C(C)C)c4)c(=O)oc3c2C)OC1(C)C [NOVOBIOCIN]

Activity [4]: transporter inhibitor
SMILES: Cc1ccc(-c2cc(C(F)(F)F)nn2-c2ccc(S(N)(=O)=O)cc2)cc1 [CELECOXIB]

Activity [5]: transporter inhibitor
Activity [6]: transporter inhibitor
SMILES: O=C1Nc2ccc(Cl)cc2[C@@](C#CC2CC2)(C(F)(F)F)O1 [EFAVIRENZ]

Activity [4]: transporter inhibitor
SMILES: O=C(O)Cc1ccccc1Nc1c(Cl)cccc1Cl [DICLOFENAC]
